According to DBAASP:
≈ marks a conversion by molar mass, not a printed value. Where “and” joins values, the source holds several entries; their conditions need not be identical. Equal values may be shown once. Blank lines part the entries; values can stand above or below the compound they belong to.

How the values were obtained:
Assay in all cases: ≥ marks a high value that may be exact or a test limit, other limits are often not marked, values filed in µg/mL are converted to µM
[1] = tested on: Bacillus subtilis ATCC 6633
[2] = tested on: Escherichia coli ATCC 10536
[3] = tested on: Escherichia coli DH5alpha
[4] = tested on: Staphylococcus aureus ATCC 9144
[5] = tested on: Enterococcus faecium V286-17
[6] = tested on: Escherichia coli ATCC 25922
[7] = tested on: Escherichia coli E416-7
[8] = tested on: Klebsiella pneumoniae ATCC 13883
[9] = tested on: Klebsiella pneumoniae E406-17
[10] = tested on: Pseudomonas aeruginosa E411-17
[11] = tested on: Pseudomonas aeruginosa PAO1
[12] = tested on: Staphylococcus aureus JE2
[13] = tested on: Staphylococcus aureus M838-17
[14] = tested on: Staphylococcus aureus USA 300
[15] = tested on: Aeromonas hydrophila
[16] = tested on: Bacillus cereus
[17] = tested on: Bacillus subtilis
[18] = tested on: Candida albicans
[19] = tested on: Corynebacterium glutamicum
[20] = tested on: Cryptococcus neoformans
[21] = tested on: Escherichia coli
[22] = tested on: Pseudomonas aeruginosa
[23] = tested on: Shigella flexneri
[24] = tested on: Staphylococcus aureus
[25] = tested on: Staphylococcus epidermidis
[26] = tested on: Vibrio alginolyticus
[27] = tested on: Vibrio parahaemolyticus
[28] = tested on: Bacillus subtilis 168 HT
[29] = tested on: Escherichia coli MG1655
[30] = tested on: Burkholderia cepacia ATCC 25416
[31] = tested on: Escherichia coli DSM 1103
[32] = tested on: Escherichia coli UB1005
[33] = tested on: Klebsiella pneumoniae DSM 681
[34] = tested on: Pseudomonas aeruginosa DSM 1128
[35] = tested on: Pseudomonas aeruginosa H374
[36] = tested on: Pseudomonas aeruginosa H547
[37] = tested on: Pseudomonas aeruginosa H744
[38] = tested on: Pseudomonas aeruginosa K799
[39] = tested on: Pseudomonas aeruginosa Z61
[40] = tested on: Salmonella enterica subsp. enterica serovar Typhimurium ATCC 14028s
[41] = tested on: Staphylococcus aureus ATCC 25923
[42] = tested on: Streptococcus pneumoniae DSM 11865
[43] = tested on: Aspergillus fumigatus
[44] = tested on: Candida parapsilosis ATCC 22019
[45] = tested on: Escherichia coli ATCC 9637
[46] = tested on: Klebsiella pneumoniae ATCC 27736
[47] = tested on: Pseudomonas aeruginosa ATCC BAA-427
[48] = tested on: Sporothrix schenckii
[49] = tested on: Trichophyton mentagrophytes

Structure (SMILES): CC[C@H](C)[C@H](NC(=O)[C@H](CC(C)C)NC(=O)[C@H](CCC(=O)O)NC(=O)[C@@H]1CCCN1C(=O)[C@H](CC(C)C)NC(=O)[C@H](Cc1cnc[nH]1)NC(=O)[C@@H](NC(=O)[C@H](CCCCN)NC(=O)[C@@H](NC(=O)[C@H](Cc1ccccc1)NC(=O)[C@H](CCCCN)NC(=O)[C@H](CCCN=C(N)N)NC(=O)[C@H](CS)NC(=O)[C@H](CC(C)C)NC(=O)[C@H](CO)NC(=O)[C@H](CCCCN)NC(=O)[C@H](CC(C)C)NC(=O)[C@H](CC(C)C)NC(=O)CN)C(C)C)C(C)C)C(=O)N[C@@H](CCC(=O)O)C(=O)N[C@@H](CCC(=O)O)C(=O)N[C@@H](CC(C)C)C(=O)N[C@H](C(=O)N[C@H](C(=O)N[C@H](C(=O)N[C@@H](CC(=O)O)C(=O)O)[C@@H](C)O)[C@@H](C)O)[C@@H](C)O [GLLKSLCRKFVKVHLPELIEELTTTD]
MIC [15]: ≥ 50 µM | MIC [16]: ≥ 50 µM | MIC [17]: ≥ 50 µM | MIC [18]: > 50 µM | MIC [19]: 8.84 µM (≈ 26.4 µg/mL) | MIC [20]: ≥ 50 µM | MIC [21]: 35.4 µM (≈ 105 µg/mL) | MIC [22]: > 50 µM | MIC [23]: ≥ 50 µM | MIC [24]: > 50 µM | MIC [25]: ≥ 50 µM | MIC [26]: ≥ 50 µM | MIC [27]: ≥ 50 µM

Structure (SMILES): CC[C@H](C)[C@H](NC(=O)CNC(=O)[C@@H](NC(=O)[C@H](CCCCN)NC(=O)[C@H](CCCCN)NC(=O)[C@H](Cc1ccccc1)NC(=O)[C@H](CC(C)C)NC(=O)[C@H](CCCCN)NC(=O)[C@H](Cc1c[nH]c2ccccc12)NC(=O)[C@@H](N)CCCCN)[C@@H](C)CC)C(=O)NCC(=O)N[C@@H](C)C(=O)N[C@H](C(=O)N[C@@H](CC(C)C)C(=O)N[C@@H](CCCCN)C(=O)N[C@H](C(=O)N[C@@H](CC(C)C)C(=O)N[C@H](C(=O)N[C@H](C(=O)NCC(=O)N[C@@H](CC(C)C)C(=O)N1CCC[C@H]1C(=O)N[C@@H](C)C(=O)N[C@@H](CC(C)C)C(=O)N[C@@H](CCCCN)C(=O)N[C@@H](CC(C)C)C(=O)N[C@H](C(=O)N[C@@H](CCCCN)C(=O)O)[C@@H](C)O)[C@@H](C)O)[C@@H](C)O)C(C)C)C(C)C [KWKLFKKIGIGAVLKVLTTGLPALKLTK]
MIC [30]: 20.9 µM (≈ 64 µg/mL) | MIC [31]: 2.04 µM (≈ 6.25 µg/mL) | MIC [32]: 0.652 µM (≈ 2 µg/mL) | MIC [33]: 2.04 µM (≈ 6.25 µg/mL) | MIC [34]: 1.02 µM (≈ 3.13 µg/mL) | MIC [35]: 0.652 µM (≈ 2 µg/mL) | MIC [36]: 1.3 µM (≈ 4 µg/mL) | MIC [37]: 0.652 µM (≈ 2 µg/mL) | MIC [38]: 0.979 µM (≈ 3 µg/mL) | MIC [39]: 0.652 µM (≈ 2 µg/mL) | MIC [40]: 0.979 µM (≈ 3 µg/mL) | MIC [41]: 2.04 µM (≈ 6.25 µg/mL) | MIC [42]: 2.04 µM (≈ 6.25 µg/mL)

Structure (SMILES): CC(C)C[C@H](NC(=O)[C@H](CC(C)C)NC(=O)[C@H](CCCN=C(N)N)NC(=O)[C@H](CCCN=C(N)N)NC(=O)[C@H](C)NC(=O)[C@H](Cc1c[nH]c2ccccc12)NC(=O)[C@H](CCCN=C(N)N)NC(=O)[C@H](C)NC(=O)[C@H](C)NC(=O)[C@H](CCCN=C(N)N)NC(=O)[C@H](CCCN=C(N)N)NC(=O)[C@@H](N)CC(C)C)C(=O)N[C@@H](CCCN=C(N)N)C(=O)N[C@@H](CCCN=C(N)N)C(=O)O [LRRAARWARRLLRR]
MIC [43]: 27 µM (≈ 50 µg/mL) | MIC [16]: 1.7 µM (≈ 3.15 µg/mL) | MIC [44]: 6.76 µM (≈ 12.5 µg/mL) | MIC [45]: 13.5 µM (≈ 25 µg/mL) | MIC [46]: 3.38 µM (≈ 6.25 µg/mL) | MIC [47]: 13.5 µM (≈ 25 µg/mL) | MIC [48]: 6.76 µM (≈ 12.5 µg/mL) | MIC [41]: 1.7 µM (≈ 3.15 µg/mL) | MIC [49]: ≥ 54 µM

More lines, now with the values ahead:

MIC [1]: 20 µM (≈ 55.2 µg/mL) | MIC [2]: 4.5 µM (≈ 12.4 µg/mL) | MIC [3]: 4.3 µM (≈ 11.9 µg/mL) | MIC [4]: 20 µM (≈ 55.2 µg/mL)
Structure (SMILES): CC[C@H](C)[C@H](NC(=O)CN)C(=O)NCC(=O)N[C@@H](C)C(=O)N[C@H](C(=O)N[C@@H](CC(C)C)C(=O)N[C@@H](CCCCN)C(=O)N[C@H](C(=O)N[C@@H](C)C(=O)N[C@H](C(=O)N[C@H](C(=O)NCC(=O)N[C@@H](C)C(=O)N1CCC[C@H]1C(=O)N[C@@H](C)C(=O)N[C@@H](CC(C)C)C(=O)N[C@H](C(=O)N[C@@H](CO)C(=O)N[C@@H](Cc1c[nH]c2ccccc12)C(=O)N[C@H](C(=O)N[C@@H](CCCCN)C(=O)N[C@@H](CCCN=C(N)N)C(=O)N[C@@H](CCCCN)C(=O)N[C@@H](CCCN=C(N)N)C(=O)N[C@@H](CCC(N)=O)C(=O)N[C@@H](CCC(N)=O)C(N)=O)[C@@H](C)CC)[C@@H](C)CC)[C@@H](C)O)[C@@H](C)O)C(C)C)C(C)C [GIGAVLKVATTGAPALISWIKRKRQQ]

MIC [5]: 4.4 µM (≈ 6.07 µg/mL) | MIC [6]: > 25 µM | MIC [7]: ≥ 50 µM | MIC [8]: 25 µM (≈ 34.5 µg/mL) | MIC [9]: ≥ 50 µM | MIC [10]: ≥ 50 µM | MIC [11]: > 25 µM | MIC [12]: 1.13 µM (≈ 1.56 µg/mL) | MIC [13]: 2.25 µM (≈ 3.1 µg/mL) | MIC [14]: 1.6 µM and 3.1 µM and 4.4 µM
Structure (SMILES): CC(C)C[C@H](NC(=O)[C@H](CC(C)C)NC(=O)[C@H](CCCCN)NC(=O)[C@H](CC(C)C)NC(=O)CNC(=O)[C@H](CC(C)C)NC(=O)[C@H](CO)NC(=O)[C@H](CC(C)C)NC(=O)[C@H](CC(C)C)NC(=O)[C@H](CC(C)C)NC(=O)[C@H](CCCCN)NC(=O)[C@H](CC(C)C)NC(=O)CN)C(N)=O [GLKLLLSLGLKLL]

MIC [28]: 9.4 µM (≈ 16 µg/mL) | MIC [29]: ≥ 37.6 µM
Structure (SMILES): CC[C@H](C)[C@H](N)C(=O)N[C@@H](CO)C(=O)N[C@@H](CCCN=C(N)N)C(=O)N[C@@H](C)C(=O)N[C@@H](CS)C(=O)N[C@@H](CC(C)C)C(=O)N[C@H](C(=O)N[C@@H](CCSC)C(=O)N[C@@H](CCCCN)C(=O)N[C@H](C(=O)N[C@@H](CCCN=C(N)N)C(=O)N[C@@H](CCCN=C(N)N)C(=O)N[C@@H](CCCCN)C(=O)N[C@@H](CCCCN)C(=O)O)C(C)C)[C@@H](C)CC [ISRACLIMKVRRKK]
